Our source for the TGI values is PubChem BioAssay (NCI).

The structures appear in SMILES notation.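 Cultured in 96-well plates, cells were exposed to test compound for 48 hours across five concentrations. TGI marks complete inhibition of growth.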

Holding throughout (assay): growth of human tumour cells (NCI), 48 h
Experiment [1] relates to SK-MEL-2 melanoma.
For experiment [2], the system named is HL-60(TB) leukemia.
Experiment [3] concerns HOP-62 NSCLC.
In experiment [4] the test system is NCI-H460 lung.
Experiment [5] deals with OVCAR-8 ovarian.
Experiment [6] concerns COLO 205 colon.
For experiment [7], the system named is UO-31 renal.
The subject of experiment [8] is TK-10 renal.
Experiment [9] has as its system UACC-62 melanoma.
Experiment [10] relates to MOLT-4 leukemia.

As to `O=S(=O)(/N=C(\NO)Nc1ccc(Cl)cc1)c1ccccc1`, the TGI in experiment [1] was 29.6 µM; in experiment [2], over 33.7 µM; in experiment [3] it was over 100 µM; in experiment [4], over 59.3 µM; in experiment [5], over 75 µM; in [6] it was 51.5 µM. Moreover, the TGI is 27.5 µM in experiment [7], over 61.6 µM in experiment [8], 36.9 µM in experiment [9] and over 56.6 µM in experiment [10].
Turning to `COc1ccc(C(=O)N/N=C/c2c(C)n(C)n(-c3ccccc3)c2=O)cc1`, the TGI in [1], in experiment [2], in experiment [3], in experiment [4], in [5] and in experiment [6] was over 100 µM each time. The TGI in experiment [7], in experiment [8], in experiment [9] and in [10] was over 100 µM throughout.
Take `CCCN1C(=O)/C(=C\c2ccc(OC)c(OC)c2)SC1=Nc1ccccc1`: the TGI in experiment [1] is over 100 µM; in experiment [2], over 100 µM; in experiment [3], 98.5 µM; in experiment [4], over 100 µM; in [5] it was over 100 µM; in [6], over 100 µM. The TGI in experiment [7] was over 100 µM; in experiment [8], 74.1 µM; in [9], over 100 µM; in experiment [10], over 100 µM.
In the case of `CCOC(=O)c1c(N2CCCC2)ncn(C)c1=S`, the TGI in experiment [1], in [2], in experiment [3], in [4], in [5] and in [6] was over 100 µM throughout. In addition, the TGI in [7], in experiment [8], in [9] and in experiment [10] was over 100 µM in each case.
For `CC[C@H](C)C1=C(O)[N@+]2([O-])Oc3ccc(-c4c(O)c(O)c(-c5ccc(O)cc5)c(OC(C)=O)c4OC(C)=O)cc3O[C@]2([C@@H](C)CC)C(=O)N1O`, the TGI in [1], in experiment [2], in experiment [3], in [4], in [5] and in experiment [6] was over 50 µM in each case. Besides, the TGI in experiment [7], in experiment [8], in [9] and in [10] was over 50 µM in each case.
Regarding `COP(=O)(OC)/C(=C/c1cn(C(c2ccccc2)(c2ccccc2)c2ccccc2)cn1)NC=O`, the TGI in [1] was 34.4 µM; in experiment [2] it was over 100 µM; in experiment [3] it was 35.9 µM; in experiment [4], 34.9 µM; in experiment [5] it was 60.4 µM; in [6], 32.9 µM. The TGI in experiment [7] was over 100 µM; in experiment [8] it was 46.3 µM; in [9], 41.3 µM; in [10], over 100 µM.
Consider `Cc1cccc2c(N)c3cccc(C(=O)NCC[N+]4(Cc5ccc([N+](=O)[O-])cc5)CCOCC4)c3nc12`, for which the TGI is over 100 µM in [1]; 58.1 µM in [2]; over 100 µM in experiment [3]; over 62.5 µM in experiment [4]; over 100 µM in [5]; over 100 µM in [6]. For the same molecule, the TGI is over 100 µM in experiment [7], over 100 µM in experiment [8], over 100 µM in experiment [9] and over 69.2 µM in [10].
Turning to `CC1(C)OC[C@@H](O)[C@H](Br)CO1`, the TGI in [1], in [2], in experiment [3], in experiment [4], in experiment [5] and in [6] was over 100 µM each time. Moreover, the TGI in [7], in experiment [8], in experiment [9] and in experiment [10] was over 100 µM throughout.
For the molecule `CSc1c(CC(=O)Nc2ccc(Cl)cc2)n(Cc2ccccc2)c2ccccc12`, the TGI is 51.3 µM in experiment [1]; over 100 µM in experiment [2]; over 100 µM in experiment [3]; over 100 µM in [4]; 41 µM in experiment [5]; over 100 µM in experiment [6]. Besides, the TGI in experiment [7] was over 100 µM; in experiment [8], 57.4 µM; in experiment [9], over 100 µM; in experiment [10], over 100 µM.
On to `CC(C)(C)C1=CC(=C2C=Cc3ccccc3O2)C=C(C(C)(C)C)C1=O`, for which the TGI in experiment [1] was 4.71 µM; in experiment [2] it was 5.92 µM; in [3], 20.9 µM; in experiment [4], 4.04 µM; in experiment [5] it was over 51.8 µM; in experiment [6], 4.71 µM. The TGI is 21.9 µM in experiment [7], 16.5 µM in [8], 8.04 µM in experiment [9] and over 21.3 µM in [10].
For the molecule `CCn1c2c(c3ccccc31)C(c1ccccc1)CC1C(=O)N(c3ccccc3)C(=O)C21` (stereo not given), the TGI in experiment [1], in [2], in experiment [3], in [4], in [5] and in experiment [6] was over 100 µM in each case. In addition, the TGI in experiment [7], in experiment [8], in experiment [9] and in experiment [10] was over 100 µM in each case.
